Data: patent US20160052926A1, “NOVEL PYRIMIDINE AND PYRIDINE COMPOUNDS AND USAGE THEREOF” (HUTCHISON MEDIPHARMA LIMITED, priority 2013, published 2016)

Assays:
Recombinant human FGFR1 = Recombinant human FGFR1 (Homo sapiens, UniProt P11362); experiment: Transcreener Kinase Assay of FGFR1; format: biochemical; settings: read-out: FGFR1 (FP) IC50
Recombinant human FGFR2 = Recombinant human FGFR2 (Homo sapiens, UniProt P21802); experiment: Transcreener Kinase Assay of FGFR2; format: biochemical; settings: read-out: FGFR2 (FP) IC50
Chain of Recombinant human FGFR2 (P21802 22-821): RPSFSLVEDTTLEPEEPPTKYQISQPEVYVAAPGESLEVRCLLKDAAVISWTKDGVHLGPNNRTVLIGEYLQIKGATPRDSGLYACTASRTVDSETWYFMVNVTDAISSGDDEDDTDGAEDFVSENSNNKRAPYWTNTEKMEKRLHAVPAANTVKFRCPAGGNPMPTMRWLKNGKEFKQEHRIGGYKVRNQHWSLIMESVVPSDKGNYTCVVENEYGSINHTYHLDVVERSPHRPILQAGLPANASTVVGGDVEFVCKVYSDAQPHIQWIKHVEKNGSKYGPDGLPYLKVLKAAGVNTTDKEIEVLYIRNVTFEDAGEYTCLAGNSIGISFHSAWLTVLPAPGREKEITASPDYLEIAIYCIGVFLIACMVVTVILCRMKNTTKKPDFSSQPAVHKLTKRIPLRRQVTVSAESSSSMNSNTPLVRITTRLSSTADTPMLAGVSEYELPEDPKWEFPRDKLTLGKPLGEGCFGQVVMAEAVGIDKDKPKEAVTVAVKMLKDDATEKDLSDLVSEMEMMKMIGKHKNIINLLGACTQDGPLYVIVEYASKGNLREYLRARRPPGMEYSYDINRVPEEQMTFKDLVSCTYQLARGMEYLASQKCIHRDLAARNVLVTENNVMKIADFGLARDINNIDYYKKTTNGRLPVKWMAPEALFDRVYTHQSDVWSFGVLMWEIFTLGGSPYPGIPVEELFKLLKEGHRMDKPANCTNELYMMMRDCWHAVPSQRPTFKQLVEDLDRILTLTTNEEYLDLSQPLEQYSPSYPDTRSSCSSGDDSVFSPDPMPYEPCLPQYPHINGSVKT

SNU-16 = experiment: Cellular Proliferation Assay (Cell Counting Kit-8), SNU-16; format: cell-based; settings: Homo sapiens, SNU-16 cells, 72 hours
Method in brief: (§1)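 Proliferation was read as OD at 450 nm after 1 h with CCK-8, following 72 h drug exposure at 37 °C, 5% CO2. Inhibition was calculated against cells in 0.5% DMSO minus medium blank, and the 50% point reported. The compound series (10–0.004 μM, pre-addition, in 5% DMSO) was added one day after plating KG-1, SNU-16 and RT-112 at 30,000, 5,000 and 1,000 cells/well respectively.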

KG-1 = experiment: Cellular Proliferation Assay (Cell Counting Kit-8), KG-1; format: cell-based; settings: Homo sapiens, KG1 cells, 72 hours
Method in brief: as §1

RT-112 = experiment: Cellular Proliferation Assay (Cell Counting Kit-8), RT-112; format: cell-based; settings: Homo sapiens, RT-112 cells, 72 hours
Method in brief: as §1

FGFR3 kinase = FGFR3 kinase (Homo sapiens, UniProt P22607); experiment: Z-Lyte Kinase Assay of FGFR3; format: biochemical
Chain of FGFR3 kinase (P22607 23-806): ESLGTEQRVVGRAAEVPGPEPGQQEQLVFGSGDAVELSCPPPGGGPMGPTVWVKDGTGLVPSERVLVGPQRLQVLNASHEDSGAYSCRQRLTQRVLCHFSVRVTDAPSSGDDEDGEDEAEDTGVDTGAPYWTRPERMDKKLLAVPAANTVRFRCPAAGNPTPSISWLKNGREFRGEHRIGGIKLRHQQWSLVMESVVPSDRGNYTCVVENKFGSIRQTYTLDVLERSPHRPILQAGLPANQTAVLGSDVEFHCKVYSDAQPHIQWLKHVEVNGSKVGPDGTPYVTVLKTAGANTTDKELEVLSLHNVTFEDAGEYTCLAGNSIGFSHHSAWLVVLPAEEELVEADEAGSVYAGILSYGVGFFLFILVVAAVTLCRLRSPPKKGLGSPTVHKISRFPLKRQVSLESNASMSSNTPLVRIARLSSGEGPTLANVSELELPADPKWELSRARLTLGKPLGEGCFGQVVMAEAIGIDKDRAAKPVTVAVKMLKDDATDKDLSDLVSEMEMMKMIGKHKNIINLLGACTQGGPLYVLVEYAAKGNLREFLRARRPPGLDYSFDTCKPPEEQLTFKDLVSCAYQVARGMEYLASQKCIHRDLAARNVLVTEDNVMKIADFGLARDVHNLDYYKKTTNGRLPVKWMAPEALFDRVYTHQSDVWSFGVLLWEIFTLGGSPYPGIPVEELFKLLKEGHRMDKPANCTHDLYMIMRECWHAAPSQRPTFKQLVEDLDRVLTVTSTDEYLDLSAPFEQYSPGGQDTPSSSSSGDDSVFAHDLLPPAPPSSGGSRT
Method in brief: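 FRET peptide-cleavage format: 1 h kinase reaction at RT (25-30[…]), then 1 h protease development, then stop and dual-emission read (Ex400, Em445/520 nm). Working solutions: kinase 0.7 μg/ml, Tyr 4 peptide 4 μM, ATP 300 uM in 1.33× buffer; eight compound concentrations from 1 μM, 2% DMSO final.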

Chain of Recombinant human FGFR1 (P11362 22-822): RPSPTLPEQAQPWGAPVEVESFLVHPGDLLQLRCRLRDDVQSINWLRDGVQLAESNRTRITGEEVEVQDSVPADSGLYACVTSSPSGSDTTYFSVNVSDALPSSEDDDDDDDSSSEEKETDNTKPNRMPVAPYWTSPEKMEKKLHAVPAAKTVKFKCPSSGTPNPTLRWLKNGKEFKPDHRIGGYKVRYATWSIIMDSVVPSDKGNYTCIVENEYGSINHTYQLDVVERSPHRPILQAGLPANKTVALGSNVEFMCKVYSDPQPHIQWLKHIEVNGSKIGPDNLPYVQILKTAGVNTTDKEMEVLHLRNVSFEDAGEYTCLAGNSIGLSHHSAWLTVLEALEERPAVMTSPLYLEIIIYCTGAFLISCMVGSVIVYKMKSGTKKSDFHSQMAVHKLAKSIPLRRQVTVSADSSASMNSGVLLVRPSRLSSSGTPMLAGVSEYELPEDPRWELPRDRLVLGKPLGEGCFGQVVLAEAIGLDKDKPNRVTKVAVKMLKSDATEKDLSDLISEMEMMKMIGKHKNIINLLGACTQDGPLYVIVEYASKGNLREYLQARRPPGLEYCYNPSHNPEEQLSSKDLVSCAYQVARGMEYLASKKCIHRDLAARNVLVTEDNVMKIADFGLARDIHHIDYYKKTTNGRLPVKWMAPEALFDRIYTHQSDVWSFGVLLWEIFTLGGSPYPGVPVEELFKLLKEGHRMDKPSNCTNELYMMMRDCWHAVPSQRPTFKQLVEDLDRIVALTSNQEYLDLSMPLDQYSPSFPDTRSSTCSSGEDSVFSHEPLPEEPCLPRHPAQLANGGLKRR

Row | Structure (SMILES) | IC50 (Recombinant human FGFR1) [µM] | IC50 (Recombinant human FGFR2) [µM] | IC50 (SNU-16) [µM] | IC50 (KG-1) [µM] | IC50 (RT-112) [µM] | IC50 (FGFR3 kinase) [µM]
1 | CNC(=O)c1cc(CCc2cnc(Nc3cnn(CCN4CCCC4)c3)nc2)c(F)c(OC)c1 [Compound 135] | 0.022 | 0.019 | 0.046 | 0.368 | 0.23 | 0.022
2 | CCN(CC)CCn1cc(Nc2ncc(CCc3cc(C(=O)NC)cc(OC)c3F)cn2)cn1 [Compound 136] | 0.023 | 0.011 | 0.025 | 0.092 | 0.037 | 0.018
3 | CNC(=O)c1cc(CCc2cnc(Nc3cnn(CC4CCN(C)CC4)c3)nc2)c(F)c(OC)c1 [Compound 137] | 0.012 | 0.006 | 0.029 | 0.319 | 0.086 | 0.007
4 | CNC(=O)c1cc(CCc2cnc(Nc3cnn(CCCN4CCCC4)c3)nc2)c(F)c(OC)c1 [Compound 138] | 0.009 | 0.007 | 0.032 | 0.617 | 0.202 | 0.008
5 | CNC(=O)c1cc(CCc2cnc(Nc3cnn(CCN4CCOCC4)c3)nc2)c(F)c(OC)c1 [Compound 139] | 0.012 | 0.006 | 0.022 | 0.064 | 0.146 | 0.008
6 | CNC(=O)c1cc(CCc2cnc(Nc3cnn(Cc4ccccn4)c3)nc2)c(F)c(OC)c1 [Compound 142] | 0.02 | 0.011 | 0.028 | 0.06 | 0.208 | 0.028
7 | CNC(=O)c1cc(CCc2cnc(Nc3cnn(CC(=O)N4CCCC4)c3)nc2)c(F)c(OC)c1 [Compound 143] | 0.041 | 0.007 | 0.1 | 0.803 | 0.991 | 0.203
8 | CNC(=O)c1cc(CCc2cnc(Nc3ccc(N4CCCCC4=O)cc3)nc2)c(F)c(OC)c1 [Compound 145, 4-fluoro-3-methoxy-N-methyl-5-(2-(2-(4-(2-oxopiperidin-1-yl)phenylamino)pyrimidin-5-yl)ethyl)benzamide] | 0.037 | 0.013 | 0.052 | 0.154 | 0.26 | 0.032
9 | CNC(=O)c1cc(CCc2cnc(Nc3cnn(C)c3)nc2)c(Cl)c(OC)c1 [Compound 146] | 0.012 | 0.01 | 0.019 | 0.009 | 0.142 | 0.014
10 | CCNC(=O)c1cc(CCc2cnc(Nc3cnn(C)c3)nc2)c(Cl)c(OC)c1 [Compound 147] | 0.019 | 0.01 | 0.046 | 0.048 | 0.334 | 0.022
11 | CNC(=O)c1cc(CCc2cnc(Nc3cnn(CCO)c3)nc2)c(Cl)c(OC)c1 [Compound 148] | 0.009 | 0.005 | 0.059 | 0.024 | 0.495 | 0.014
12 | CNC(=O)c1cc(CCc2cnc(Nc3cnn(C(F)F)c3)nc2)c(Cl)c(OC)c1 [Compound 149] | 0.015 | 0.008 | 0.017 | 0.067 | 0.021 | 0.033
13 | CNC(=O)c1cc(CCc2cnc(Nc3cnn(C[C@@H](C)O)c3)nc2)c(Cl)c(OC)c1 [Compound 150] | 0.015 | 0.006 | 0.033 | 0.031 | 0.062 | 0.006
14 | CNC(=O)c1cc(CCc2cnc(Nc3cnn(-c4ccccn4)c3)nc2)c(Cl)c(OC)c1 [Compound 151] | 0.015 | 0.016 | 0.149 | 0.071 | 0.626 | 0.152
15 | CNC(=O)c1cc(CCc2cnc(Nc3cnn(-c4ccc(C)nc4)c3)nc2)c(Cl)c(OC)c1 [Compound 152] | 0.019 | 0.012 | 0.029 | 0.056 | 0.088 | 0.038
16 | CNC(=O)c1cc(CCc2cnc(Nc3cnn(CCS(C)(=O)=O)c3)nc2)c(Cl)c(OC)c1 [Compound 153] | 0.015 | 0.007 | 0.059 | 0.177 | 0.24 | 0.016
17 | CNC(=O)c1cc(CCc2cnc(Nc3cnn(CC4CCN(C)CC4)c3)nc2)c(Cl)c(OC)c1 [Compound 154] | 0.012 | 0.005 | 0.016 | 0.37 | 0.021 | 0.009
18 | CCN1CCC(Cn2cc(Nc3ncc(CCc4cc(C(=O)NC)cc(OC)c4Cl)cn3)cn2)CC1 [Compound 155] | 0.01 | 0.004 | 0.018 | 0.461 | 0.012 | 0.004
